What was measured:
[1] = molecular target: T1, ATP-dependent translocase ABCB1 (Mus musculus, UniProt P21447); assay: TP_TRANSPORTER: increase in plasma concentration in mdr1a(-/-) mouse; format: functional, organism-based; details: in vivo
[2] = molecular target: T1, ATP-dependent translocase ABCB1; assay: TP_TRANSPORTER: increase in bioavailability in mdr1a(-/-) mouse; format: functional, organism-based; details: in vivo

T1 sequence (P21447 whole entry): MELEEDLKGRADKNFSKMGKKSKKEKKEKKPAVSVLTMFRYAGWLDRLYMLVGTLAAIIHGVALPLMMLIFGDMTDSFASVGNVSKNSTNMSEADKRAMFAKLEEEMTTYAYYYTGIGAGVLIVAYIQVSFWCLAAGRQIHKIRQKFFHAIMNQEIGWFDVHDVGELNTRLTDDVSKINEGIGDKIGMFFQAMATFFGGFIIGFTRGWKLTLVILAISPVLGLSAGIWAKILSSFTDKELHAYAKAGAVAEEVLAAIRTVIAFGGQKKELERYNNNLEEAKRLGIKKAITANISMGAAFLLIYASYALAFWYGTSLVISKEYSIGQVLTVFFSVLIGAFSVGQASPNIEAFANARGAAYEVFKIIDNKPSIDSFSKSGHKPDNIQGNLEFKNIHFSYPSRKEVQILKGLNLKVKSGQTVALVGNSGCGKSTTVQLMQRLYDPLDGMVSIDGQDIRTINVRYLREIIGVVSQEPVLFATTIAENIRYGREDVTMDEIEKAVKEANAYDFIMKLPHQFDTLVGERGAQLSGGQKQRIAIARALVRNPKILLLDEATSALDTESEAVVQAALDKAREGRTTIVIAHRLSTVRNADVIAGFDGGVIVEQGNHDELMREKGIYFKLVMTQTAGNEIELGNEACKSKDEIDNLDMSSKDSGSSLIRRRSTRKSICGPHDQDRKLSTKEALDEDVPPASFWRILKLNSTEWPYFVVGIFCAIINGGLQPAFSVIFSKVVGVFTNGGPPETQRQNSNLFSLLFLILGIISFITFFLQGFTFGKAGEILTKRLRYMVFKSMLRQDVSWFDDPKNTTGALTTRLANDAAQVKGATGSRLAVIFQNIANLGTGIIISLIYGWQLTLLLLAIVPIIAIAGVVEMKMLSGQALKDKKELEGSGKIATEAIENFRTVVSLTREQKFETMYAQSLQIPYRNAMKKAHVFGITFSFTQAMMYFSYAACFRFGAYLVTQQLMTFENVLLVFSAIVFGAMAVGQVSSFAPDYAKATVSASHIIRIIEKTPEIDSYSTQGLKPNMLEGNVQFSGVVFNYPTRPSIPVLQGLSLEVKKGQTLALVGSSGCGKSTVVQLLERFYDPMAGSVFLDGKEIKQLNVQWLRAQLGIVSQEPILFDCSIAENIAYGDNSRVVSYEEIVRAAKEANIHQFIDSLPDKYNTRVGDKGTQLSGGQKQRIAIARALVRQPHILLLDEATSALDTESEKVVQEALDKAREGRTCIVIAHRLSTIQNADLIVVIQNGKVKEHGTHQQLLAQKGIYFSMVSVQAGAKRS

CC(=O)O[C@H]1C(=O)[C@@]2(C)[C@H]([C@H](OC(=O)c3ccccc3)[C@]3(O)C[C@H](OC(=O)[C@H](O)[C@@H](NC(=O)c4ccccc4)c4ccccc4)C(C)=C1C3(C)C)[C@]1(OC(C)=O)CO[C@@H]1C[C@@H]2O [PACLITAXEL]
Activity [1]: substrate [+]
Activity [2]: substrate [+]
